From patent publication US20150337013A1, “NOVEL ANTIBACTERIAL AGENTS FOR THE TREATMENT OF GRAM POSITIVE INFECTIONS” (priority 2008, published 2015)
“And” between values parts separate entries of the source, which are not always exact repeats. Identical values can stand only once. Like-named read-outs stand apart in the source and are kept apart here.

Assays:
[1] = system: daptomycin resistant Staph. aureus (DRSA), daptomycin resistant E. faecium (DREfm) and daptomycin resistance E. faecalis (DREfs); assay: Activity against daptomycin resistant bacteria, summary statement; type: cell-based; settings: statement in words
Experimental: (§1) Compounds according to Formula I were tested for antimicrobial activity against a panel of organisms. Aerobic organisms, Staphylococcus aureus, Enterococcus faecalis and E. faecium, were tested by broth microdilution according to Clinical and Laboratory Standards Institute (CLSI) document M7-A7 (Clinical and Laboratory Standards Institute. Methods for Dilution Antimicrobial Susceptibility Tests for Bacteria that Grow Aerobically; Approved Standard—Seventh Edition. CLSI document M7-A7 [ISBN 1-56238-587-9]. Clinical and Laboratory Standards Institute, 940 West Valley Road, Suite 1400, Wayne, Pa. 19087-1898 USA, 2006) with modifications as described below. Mueller Hinton Broth (MHBc) was supplemented with 50 mg/L calcium (equivalent to human physiological levels of calcium) and assay plates were incubated 18-20 hours at 37° C. with aeration (200 rpm).
(§2) In all cases the final concentration of dimethyl sulfoxide incubated with cells is less than or equal to 1%. For minimum inhibitory concentration (MIC) calculations, 2-fold dilutions of compounds were added to wells of a microtiter plate containing 5×10^5 bacteria in a final volume of 100 μL of media. Following incubation, (18-20 hours at 37° C. with aeration at 200 rpm) growth was confirmed visually by placing plates over a viewing apparatus (stand with a mirror underneath) and then the optical density (OD600) was measured using a SpectraMax 340PC^384 plate reader. Growth was defined as turbidity that could be detected with the naked eye or achieving minimum OD600of 0.1. MIC values (in μg/mL) were defined as the lowest concentration producing no visible turbidity.

[2] = system: Clostridium difficile
[3] = system: Enterococcus faecium EFM.14 (ATCC 6569); type: cell-based
Method in brief: (§3)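 Broth microdilution per CLSI M7-A7 in Mueller Hinton broth supplemented with 50 mg/L calcium; 2-fold compound dilutions, 5×10^5 bacteria per well, DMSO ≤1% final, 18-20 h at 37° C with aeration (200 rpm). MIC (μg/mL) = lowest concentration with no visible turbidity (growth: visible turbidity or OD600 ≥0.1).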

[4] = system: Enterococcus faecalis EFS.312, Daptomycin resistant mutant (EFA); type: cell-based; settings: MHBc with 50 mg/L calcium, 18-20 hours at 37° C.
Method in brief: as §3

[5] = system: Staphylococcus aureus SAU.278, Daptomycin resistant mutant (D10); type: cell-based; settings: MHBc with 50 mg/L calcium, 18-20 hours at 37° C.
Method in brief: as §3

[6] = system: Enterococcus faecalis EFS.201 (ATCC 49452); type: cell-based
Method in brief: as §3

[7] = system: Enterococcus faecium EFM.384, Daptomycin resistant mutant (14-A); type: cell-based; settings: MHBc with 50 mg/L calcium, 18-20 hours at 37° C.
Method in brief: as §3

[8] = system: gram positive bacteria; assay: Antimicrobial activity against a panel of organisms, summary statements; type: cell-based; settings: statement in words
Experimental: as §1, §2

[9] = system: C. difficile spores (ATCC #43596); assay: Hamster C. difficile infection (CDAD) protection model; type: in vivo, Syrian golden hamsters; settings: oral 0.5 mg/kg once daily for 5 days (MET 70 mg/kg three times daily for 5 days)
Experimental: Syrian golden hamsters were pretreated with 10 mg/kg clindamycin subcutaneously 24 hours before bacterial challenge. An inoculum of 20 C. difficile spores (ATCC #43596) in sterile saline was administered orally. Treatment was initiated 4 hours post-inoculation with dH2O, metronidazole (MET), vancomycin (VAN), or a compound of the present invention. Oral dosing regimens for VAN and compounds of Formula I were 0.5 mg/kg once daily for 5 days. MET was administered at 70 mg/kg three times daily for 5 days. CDAD was confirmed as the cause of death by observations at necropsy, including wet tail and/or macroscopic cecal alterations. The % protection provided by each therapy tested was calculated at 1 and 21 days post-dosing.

[10] = system: Staphylococcus aureus SAU.42 (ATCC 29213); type: cell-based
Method in brief: as §3

[11] = system: Staphylococcus aureus SAU.399 (ATCC 43300), Methicillin and Oxacillin Resistant; type: cell-based
Method in brief: as §3

[12] = MHBc with 50 mg/L calcium, 18-20 hours at 37° C.

SMILES: CCCCc1ccc(/C(C)=C/C(=O)N[C@@H](Cc2c[nH]c3ccccc23)C(=O)N[C@H](CC(N)=O)C(=O)N[C@@H](CC(=O)O)C(=O)N[C@@H]2C(=O)NCC(=O)N[C@@H](CCCN)C(=O)N[C@@H](CC(=O)O)C(=O)N[C@H](C)C(=O)N[C@@H](CC(=O)O)C(=O)NCC(=O)N[C@H](CO)C(=O)N[C@@H]([C@H](C)CC(=O)O)C(=O)N[C@@H](CC(=O)c3ccccc3N)C(=O)O[C@@H]2C)cc1 [Compound 48, N-{1-[(E)-3-(4-butylphenyl)but-2-enoyl]}-L-tryptophyl-D-asparaginyl-L-α-aspartyl-L-threonylglycyl-L-ornithyl-L-α-aspartyl-D-alanyl-L-α-aspartylglycyl-D-seryl-(3R)-3-methyl-L-α-glutamyl-(αS)-α,2-diamino-γ-oxobenzenebutanoic acid (13→4)-lactone]
- useful against daptomycin resistant strains of bacteria [1]: useful against daptomycin resistant strains of bacteria
- C. diff MIC90 [2]: 2 mg/L
- Efm14 MIC ([3]; ATCC 6569): 2 mg/L
- Efs312 MIC [4]: >32 mg/L and 32 mg/L
- Sa278 MIC [5]: 2 mg/L and 4 mg/L
- Efs201 MIC ([6]; ATCC 49452): 1 mg/L
- Efm384 MIC [7]: 32 mg/L
- as active or more active than daptomycin [8]: as active or more active than daptomycin

SMILES: C[C@H](CC(=O)O)[C@@H]1NC(=O)[C@@H](CO)NC(=O)CNC(=O)[C@H](CC(=O)O)NC(=O)[C@@H](C)NC(=O)[C@H](CC(=O)O)NC(=O)[C@H](CCCN)NC(=O)CNC(=O)[C@@H](NC(=O)[C@H](CC(=O)O)NC(=O)[C@@H](CC(N)=O)NC(=O)[C@H](Cc2c[nH]c3ccccc23)NC(=O)C2CCCCCCCCCCC2)[C@@H](C)OC(=O)[C@H](CC(=O)c2ccccc2N)NC1=O [Compound 28, N-cyclododecanecarbonyl-L-tryptophyl-D-asparaginyl-L-α-aspartyl-L-threonylglycyl-L-ornithyl-L-α-aspartyl-D-alanyl-L-α-aspartylglycyl-D-seryl-(3R)-3-methyl-L-α-glutamyl-(αS)-α,2-diamino-γ-oxobenzenebutanoic acid (13→4)-lactone]
- Mean % Protection 1 Day Post Dosing [9]: 100%
- Mean % Protection 21 Days Post Dosing [9]: 100%
- C. diff MIC90 [2]: 4 mg/L
- Efs312 MIC [4]: >32 mg/L
- Sa278 MIC [5]: 4 mg/L and 8 mg/L
- Efm384 MIC [7]: 32 mg/L
- as active or more active than daptomycin [8]: as active or more active than daptomycin

SMILES: CCCCCC1CCC(C(=O)N[C@@H](Cc2c[nH]c3ccccc23)C(=O)N[C@H](CC(N)=O)C(=O)N[C@@H](CC(=O)O)C(=O)N[C@@H]2C(=O)NCC(=O)N[C@@H](CCCN)C(=O)N[C@@H](CC(=O)O)C(=O)N[C@H](C)C(=O)N[C@@H](CC(=O)O)C(=O)NCC(=O)N[C@H](CO)C(=O)N[C@@H]([C@H](C)CC(=O)O)C(=O)N[C@@H](CC(=O)c3ccccc3N)C(=O)O[C@@H]2C)CC1 (some centres unmarked) [Compound 16]
- Mean % Protection 1 Day Post Dosing [9]: 100%
- Mean % Protection 21 Days Post Dosing [9]: 85%
- Efs312 MIC [4]: 16 mg/L and >32 mg/L
- Sa278 MIC [5]: 8 mg/L
- Sa42 MIC ([10]; ATCC 29213): 0.5 mg/L
- Efm384 MIC [7]: 32 mg/L and 16 mg/L
- as active or more active than daptomycin [8]: as active or more active than daptomycin

SMILES: CCCCCOc1ccc(-c2ccc(C(=O)N[C@@H](Cc3c[nH]c4ccccc34)C(=O)N[C@H](CC(N)=O)C(=O)N[C@@H](CC(=O)O)C(=O)N[C@@H]3C(=O)NCC(=O)N[C@@H](CCCN)C(=O)N[C@@H](CC(=O)O)C(=O)N[C@H](C)C(=O)N[C@@H](CC(=O)O)C(=O)NCC(=O)N[C@H](CO)C(=O)N[C@@H]([C@H](C)CC(=O)O)C(=O)N[C@@H](CC(=O)c4ccccc4N)C(=O)O[C@@H]3C)cc2)cc1 [Compound 61, N-[4′-(pentyloxy)biphenyl-4-carbonyl]-L-tryptophyl-D-asparaginyl-L-α-aspartyl-L-threonylglycyl-L-ornithyl-L-α-aspartyl-D-alanyl-L-α-aspartylglycyl-D-seryl-(3R)-3-methyl-L-α-glutamyl-(αS)-α,2-diamino-γ-oxobenzenebutanoic acid (13→4)-lactone]
- useful against daptomycin resistant strains of bacteria [1]: useful against daptomycin resistant strains of bacteria
- C. diff MIC90 [2]: 2 mg/L
- Efm14 MIC ([3]; ATCC 6569): 0.5 mg/L
- Efs312 MIC [4]: 4 mg/L
- Efm384 MIC [7]: 2 mg/L and 1 mg/L
- as active or more active than daptomycin [8]: as active or more active than daptomycin
- more active against bacteria than daptomycin [8]: more effective than daptomycin

SMILES: CCCCCCCCCCOc1ccc(C(=O)N[C@@H](Cc2c[nH]c3ccccc23)C(=O)N[C@H](CC(N)=O)C(=O)N[C@@H](CC(=O)O)C(=O)N[C@@H]2C(=O)NCC(=O)N[C@@H](CCCN)C(=O)N[C@@H](CC(=O)O)C(=O)N[C@H](C)C(=O)N[C@@H](CC(=O)O)C(=O)NCC(=O)N[C@H](CO)C(=O)N[C@@H]([C@H](C)CC(=O)O)C(=O)N[C@@H](CC(=O)c3ccccc3N)C(=O)O[C@@H]2C)cc1 [Compound 38]
- useful against daptomycin resistant strains of bacteria [1]: useful against daptomycin resistant strains of bacteria
- C. diff MIC90 [2]: 1 mg/L
- Efm14 MIC [3, 12]: 0.5 mg/L
- Efs312 MIC [4]: 0.5 mg/L
- Sa278 MIC [5]: 0.50 mg/L
- Sa42 MIC [10, 12]: 0.25 mg/L
- Efs201 MIC [6, 12]: 0.5 mg/L
- Sa399 MIC [11, 12]: 0.5 mg/L
- Efm384 MIC [7]: 1 mg/L
- as active or more active than daptomycin [8]: as active or more active than daptomycin
- more active against bacteria than daptomycin [8]: more effective than daptomycin

SMILES: CCCCCCc1ccc(/C(C)=C/C(=O)N[C@@H](Cc2c[nH]c3ccccc23)C(=O)N[C@H](CC(N)=O)C(=O)N[C@@H](CC(=O)O)C(=O)N[C@@H]2C(=O)NCC(=O)N[C@@H](CCCN)C(=O)N[C@@H](CC(=O)O)C(=O)N[C@H](C)C(=O)N[C@@H](CC(=O)O)C(=O)NCC(=O)N[C@H](CO)C(=O)N[C@@H]([C@H](C)CC(=O)O)C(=O)N[C@@H](CC(=O)c3ccccc3N)C(=O)O[C@@H]2C)cc1 [Compound 50, N-{1-[(E)-3-(4-hexylphenyl)but-2-enoyl]}-L-tryptophyl-D-asparaginyl-L-α-aspartyl-L-threonylglycyl-L-ornithyl-L-α-aspartyl-D-alanyl-L-α-aspartylglycyl-D-seryl-(3R)-3-methyl-L-α-glutamyl-(αS)-α,2-diamino-γ-oxobenzenebutanoic acid (13→4)-lactone]
- useful against daptomycin resistant strains of bacteria [1]: useful against daptomycin resistant strains of bacteria
- C. diff MIC90 [2]: 0.5 mg/L
- Efm14 MIC ([3]; ATCC 6569): 1 mg/L
- Efs312 MIC [4]: 4 mg/L
- Sa278 MIC [5]: 1 mg/L
- Efs201 MIC ([6]; ATCC 49452): 0.25 mg/L
- Sa399 MIC ([11]; ATCC 43300): 0.5 mg/L
- Efm384 MIC [7]: 4 mg/L
- as active or more active than daptomycin [8]: as active or more active than daptomycin
- more active against bacteria than daptomycin [8]: more effective than daptomycin
